Assays:
[1] = Sensory analysis: odour threshold
Excerpt: (§1) Purpose: to carry out a sensory analysis of (−)-Ambrox and the compounds (II), (III) and (IV) formed in the crude material and in the crystallised material.

[2] = Sensory analysis: GC-detection threshold and odour description; conditions: for GC-detection threshold / odour description: sensory analysis; for odour description: in words
Excerpt: as §1

## CC1(C)CCC[C@]2(C)[C@H]3CCO[C@]3(C)CC[C@@H]12 [(−)-Ambrox]
[1]; sensory analysis
  Odour Threshold: 0.2 ng/L

## C/C1=C/CCO[C@@]2(C)CCCC(C)(C)[C@@H]2CC1 [Compound (II)]
[2]
  GC-detection threshold: > 500 ng
  odour description: “odorless”
[2]; listed as II
  odour description: weaker odour
[2]; listed as compound of formula (II)
  odour description: practically odourless
[1]; as stated in the description
  detection threshold: > 500 ng/L

## CC1(C)CCC[C@@]2(C)[C@H]1CC[C@@]1(C)OCC[C@@H]21 [Compound (III)]
[2]; compared with (−)-Ambrox
  odor weaker than (−)-Ambrox: about 10 fold
[2]
  GC-detection threshold: circa 2 ng
[2]; listed as Compound III
  odour description: essentially odorless
[2]; listed as III
  odour description: weaker odour
[2]; times higher than (−)-Ambrox
  GC-threshold relative to (−)-Ambrox: about 10 ×

## CC1(C)CCC[C@@]2(C)[C@H]1CC[C@]1(C)OCC[C@@H]21 [Compound (IV)]
[2]
  GC-detection threshold: 5 to 10 ng
  odour description: weak, IsoE, woody
[2]; listed as IV
  odour description: weaker odour
